Laboratory results as given in ChEMBL document CHEMBL4325874, “Design and synthesis of histamine H3/H4 receptor ligands with a cyclopropane scaffold” (Bioorg Med Chem Lett, 2018).

Columns and labels:
Histamine H4 receptor = Histamine H4 receptor (Homo sapiens, UniProt Q9H3N8); test: Displacement of [3H]histamine from human recombinant histamine H4 receptor expressed in CHO cell membranes after 30 mins by liquid scintillation analysis
Histamine H3 receptor = Histamine H3 receptor (Homo sapiens, UniProt Q9Y5N1); test: Displacement of [3H]Nalpha-methylhistamine from human recombinant histamine H3 receptor expressed in CHO cell membranes after 30 mins by liquid scintillation analysis
Chain of Histamine H3 receptor (Q9Y5N1 whole entry): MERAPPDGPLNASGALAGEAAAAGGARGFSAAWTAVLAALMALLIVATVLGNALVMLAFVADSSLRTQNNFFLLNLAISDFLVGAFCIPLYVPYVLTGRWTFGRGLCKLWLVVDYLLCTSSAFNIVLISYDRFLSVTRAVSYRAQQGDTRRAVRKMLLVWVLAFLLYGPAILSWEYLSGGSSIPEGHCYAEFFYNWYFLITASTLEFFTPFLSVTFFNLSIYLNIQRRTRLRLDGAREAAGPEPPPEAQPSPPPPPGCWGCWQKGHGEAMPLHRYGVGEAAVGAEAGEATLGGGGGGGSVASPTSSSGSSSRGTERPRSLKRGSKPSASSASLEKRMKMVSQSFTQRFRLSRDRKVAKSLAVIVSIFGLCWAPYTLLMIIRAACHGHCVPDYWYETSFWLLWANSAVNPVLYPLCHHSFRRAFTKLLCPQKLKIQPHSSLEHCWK

| Ki (Histamine H4 receptor) [nM] | Ki (Histamine H3 receptor) [nM] | SMILES |
| --- | --- | --- |
| > 1000 | > 1000 | Clc1ccc(CNCC[C@@H]2C[C@@H]2c2cc3cc(Cl)ccc3[nH]2)cc1 |
| > 1000 | > 1000 | Clc1ccc(CNC[C@@H]2C[C@H]2c2nc3cc(Cl)ccc3[nH]2)cc1 |
| > 1000 | > 1000 | Clc1ccc(CNC[C@@H]2C[C@@H]2c2cc3cc(Cl)ccc3[nH]2)cc1 |
| > 1000 | > 1000 | Clc1ccc(CNCC[C@H]2C[C@H]2N2CCNCC2)cc1 |
| > 1000 | > 1000 | Clc1ccc(CNCC[C@@H]2C[C@H]2c2nc3cc(Cl)ccc3[nH]2)cc1 |
| > 1000 | > 1000 | CN1CCN([C@@H]2C[C@@H]2CCNCc2ccc(Cl)cc2)CC1 |
| 166 | 52 | c1ccc2[nH]c(CNCC[C@@H]3C[C@H]3c3c[nH]cn3)nc2c1 |
| > 1000 | > 1000 | CN1CCN([C@@H]2C[C@@H]2CNCc2ccc(Cl)cc2)CC1 |
| > 1000 | > 1000 | Clc1ccc(CNC[C@H]2C[C@H]2N2CCNCC2)cc1 |

| SMILES | Ki (Histamine H4 receptor) [nM] | Ki (Histamine H3 receptor) [nM] |
| --- | --- | --- |
| c1ccc2[nH]c(C[C@@H]3C[C@H]3c3c[nH]cn3)nc2c1 | 295 | 186 |
